In patent US12221406B2, “Compounds as NLRP3 inflammasome inhibitors and compositions and uses thereof” (VIRGINIA COMMONWEALTH UNIVERSITY, priority 2019, dated 2025):

Experiments:
[1] = target: T1, NLRC4 inflammasome (Mus musculus, UniProt Q3UP24); assay: NLRC4 inflammasome assay in J774A.1 cells (LPS/flagellin, IL-1β ELISA); format: cell-based, murine; settings: compound 10 μM
T1 construct: endogenous in cells; host or cells: J774A.1 murine macrophage cell line (LPS + transfected flagellin)
Method: (§1) J774A.1 cells were plated into a 96-well plate. […] Cells were treated with LPS (1 μg/mL) and test compounds for 1 h. Flagellin or poly-deoxyadenylic-deoxythymidylic acid sodium salt (Poly(dA:dT)) was used to induce the formation of the NLRC4 and the AIM2 inflammasomes.

[2] = test system: EAE; assay: EAE development in MOG-immunized mice; format: in vivo, C57BL/6 mice; settings: from disease onset, to day 35
Description: C57BL/6 mice (n=10) were immunized subcutaneously in the dorsal flanks with MOG35-55 peptide emulsified in CFA on day 0. […] To assess the therapeutic effect in clinically relevant setting, treatment was started on disease onset (reduced tail tone, clinical score=1). Control mice received DMSO.

[3] = target: NLRP3 inflammasome (Mus musculus, UniProt Q8R4B8); assay: IL-1β release from mouse peritoneal macrophages upon LPS/ATP challenge (ELISA); format: cell-based; design: endogenous in cells; host or cells: thioglycolate-elicited peritoneal macrophages from C57BL/6 mice
NLRP3 inflammasome, sequence (Q8R4B8 whole entry): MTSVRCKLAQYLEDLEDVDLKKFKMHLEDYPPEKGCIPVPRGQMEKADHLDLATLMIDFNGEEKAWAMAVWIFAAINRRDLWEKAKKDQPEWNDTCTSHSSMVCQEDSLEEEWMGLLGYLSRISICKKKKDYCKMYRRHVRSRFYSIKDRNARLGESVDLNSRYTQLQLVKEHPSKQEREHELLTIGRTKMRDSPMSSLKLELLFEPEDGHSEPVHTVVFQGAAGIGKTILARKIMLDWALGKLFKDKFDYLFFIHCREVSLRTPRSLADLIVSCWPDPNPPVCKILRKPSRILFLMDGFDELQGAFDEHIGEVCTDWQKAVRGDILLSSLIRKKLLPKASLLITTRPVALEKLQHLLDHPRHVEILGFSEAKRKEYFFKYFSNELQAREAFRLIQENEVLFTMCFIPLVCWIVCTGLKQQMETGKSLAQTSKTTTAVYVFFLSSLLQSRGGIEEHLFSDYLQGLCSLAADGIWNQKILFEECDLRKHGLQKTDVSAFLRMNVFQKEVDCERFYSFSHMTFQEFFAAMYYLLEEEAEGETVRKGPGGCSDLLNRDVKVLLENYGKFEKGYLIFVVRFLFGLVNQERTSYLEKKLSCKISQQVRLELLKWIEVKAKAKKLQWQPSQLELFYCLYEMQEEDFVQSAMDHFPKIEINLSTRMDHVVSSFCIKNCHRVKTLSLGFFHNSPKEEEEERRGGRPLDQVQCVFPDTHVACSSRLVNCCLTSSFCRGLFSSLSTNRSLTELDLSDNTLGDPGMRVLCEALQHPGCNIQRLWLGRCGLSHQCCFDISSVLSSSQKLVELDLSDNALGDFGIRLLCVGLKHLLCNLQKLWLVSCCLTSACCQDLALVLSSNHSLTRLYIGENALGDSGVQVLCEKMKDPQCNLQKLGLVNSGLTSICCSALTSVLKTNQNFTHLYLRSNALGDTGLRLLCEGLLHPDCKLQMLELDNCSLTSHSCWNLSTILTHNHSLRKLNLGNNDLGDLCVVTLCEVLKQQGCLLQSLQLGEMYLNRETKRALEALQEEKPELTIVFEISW
Method: Next, test compounds were added for 30 min. […] Primary peritoneal macrophages were similarly treated as described with J774A.1 cell line followed by ELISA analysis for IL-β production.
C57BL/6 mice were injected with 1 mL of 3% thioglycolate into the peritoneal cavity. Peritoneal cells were collected 3 days after injection by flushing the peritoneal cavity with cold PBS. The peritoneal cells were plated in complete RPMI1640 media containing 10% FBS, 100 U/mL penicillin, 100 μg/mL streptomycin. Floating cells were removed after 2 h and adherent peritoneal macrophages were used for experiments as described above.

[4] = target: T2, AIM2 inflammasome (Mus musculus, UniProt Q91VJ1); assay: AIM2 inflammasome assay in J774A.1 cells (LPS/Poly(dA:dT), IL-1β ELISA); format: cell-based, murine; settings: compound 10 μM
T2 construct: endogenous in cells; host or cells: J774A.1 murine macrophage cell line (LPS + Poly(dA:dT))
T2 sequence (Q91VJ1 1-354): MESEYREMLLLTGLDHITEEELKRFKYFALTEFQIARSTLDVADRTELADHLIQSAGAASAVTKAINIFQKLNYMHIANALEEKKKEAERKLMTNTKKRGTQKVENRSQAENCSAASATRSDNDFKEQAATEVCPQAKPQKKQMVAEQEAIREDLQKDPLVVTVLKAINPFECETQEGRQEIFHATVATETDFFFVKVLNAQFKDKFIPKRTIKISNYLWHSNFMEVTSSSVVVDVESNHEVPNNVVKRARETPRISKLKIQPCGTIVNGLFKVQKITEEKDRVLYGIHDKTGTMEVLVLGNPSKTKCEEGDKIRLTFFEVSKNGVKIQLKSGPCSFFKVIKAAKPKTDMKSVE
Method: as §1

[5] = In vivo BBB penetration in mice, plasma and brain by LC-MS/MS; design: species or system C57BL/6 mice; settings: PO 20 mg/kg
Method: (§2) […]. […] […]. Plasma samples ([…]) were collected at 0.08, 0.17, 0.25, 0.5, 0.75, 1.0, 2.0, 4.0, 8.0, 12.0, and 24.0 h time points through orbital vein and were stored in −80° C. freezer for later analysis.
(§3) Samples were mixed by vortexing for 30 seconds. […] […]. […] […].

[6] = PK study in rats, IV and PO, plasma by LC-MS/MS; format: in vivo, Sprague-Dawley rats
Method: as §2, §3

[7] = test system: hCMEC/D3 cells; assay: Cytotoxicity on hCMEC/D3 cells (Live/Dead kit); format: cell-based, human; settings: 20 μM, 2 h

C#CCNS(=O)(=O)c1ccc(CCN(Cc2cc(Cl)ccc2OC)C(=O)C=C)cc1 [HL16, N-(5-chloro-2-methoxybenzyl)-N-(4-(N-(prop-2-yn-1-yl)sulfamoyl)phenethyl)acryl-amide]
effect on IL-1β production by NLRC4 inflammasome [1]: significantly inhibited
EAE induction (clinical score) ([2]; 2 mg/kg i.p.): substantially blocked induction of EAE
EAE induction (clinical score) ([2]; 10 mg/kg i.p.): substantially blocked induction of EAE
inhibitory activity in mouse peritoneal macrophages [3]: confirmed
effect on IL-1β production by AIM2 inflammasome [4]: significantly inhibited

C#CCNS(=O)(=O)c1ccc(CCN(Cc2cc(Cl)ccc2OCCC)C(=O)Cc2ccsc2)cc1 [SZ-N3I-45, N-(5-chloro-2-propoxybenzyl)-N-(4-(N-(prop-2-yn-1-yl)sulfamoyl)phenethyl)-2-(thio-phen-3-yl)acetamide]
plasma concentration ([5]; 0.5 hours): 277.33 ± 182.15 ng/mL
brain concentration after approximate conversion ([5]; 4 h): around 12 nM
oral bioavailability (Foral) ([6]; 20 mg/kg PO vs IV): 10%
steady-state volume of distribution (Vdss) ([6]; IV 20 mg/kg): 8.5 L/kg
terminal plasma half-life (t½) ([6]; IV 20 mg/kg): 6.6 h
total clearance (CLtot) ([6]; IV 20 mg/kg): 41 mL/min/kg
cmax ([6]; PO 20 mg/kg): 73 ng/mL
tmax ([6]; PO 20 mg/kg): 12 h
effect on IL-1β production by NLRC4 inflammasome [1]: did not significantly interfere
cytotoxicity on hCMEC/D3 cells [7]: did not show significant toxic effects
effect on IL-1β production by AIM2 inflammasome [4]: did not significantly interfere
